Source: patent publication US5166214A, “Use of imidazoles for the treatment of atherosclerosis” (priority 1990, dated 1992)

Tested on: murine macrophage-like cell line J774.A1
Assay: Inhibition of cholesterol esterification in mammalian cells (macrophage assay)
Assay type: cell-based
Conditions: J774.A1 macrophages loaded with ac-LDL, 14C-oleic acid; read-out: Cholesterol Esterification IC50
Experimental: B. Assay of the Inhibition of Cholesterol Esterification in Mammalian Cells
The esterification of cholesterol was determined in the murine macrophage-like cell line J774.A1. Cells were seeded in 35 mm wells at a density of 300,000 cells per well in 2 mls of Dulbecco's Eagle Medium (DMEM) supplemented with 10% fetal bovine serum (FBS). Cells were incubated at 37° C. in an atmosphere of 5% CO2 and 93% humidity. After 24 hours the media was changed to 0.68 mls 10% FBS-DMEM containing 34 μg of acetylated human low density lipoprotein (ac-LDL) to increase the intracellular concentration of cholesterol and promote esterification. At 41 hours, various inhibitors were added to the cells in DMSO (10 μl/ml maximum). At 43 hours, the cells were pulsed with 0.1 mM ^14 C-oleic acid (10,000 dpm/nmol) complexed with BSA (bovine serum albumin) to follow cholesterol ester formation. The experiment was terminated at 45 hours by washing the monolayers 3 times with 3 ml of Tris-buffered saline at 4° C. The lipids were extracted by incubating the monolayers with 1.5 ml of hexane:isopropanol (3:2, v/v) for 30 min. under gentle agitation. During this period, 10,000 dpm 3H-cholesteryl linoleate and 10 μg of cholesteryl oleate were added as an internal standard and carrier respectively. The organic solvent was removed and the cells were washed with an additional 1.0 ml of hexane: isopropanol which was combined with the original extract. The cells were allowed to dry overnight, digested with 1.5 ml of 0.2N sodium hydroxide for 1 hour and an aliquot of the solubilized protein used for protein determination using the Lowry method. The organic extract was taken to dryness, the residue resuspended in 100 μl of chloroform and the lipids separated on silica gel impregnated glass fiber plates using a hexane:diethylether:acetic acid (170:30:1, v/v/v) solvent system. Individual lipids were visualized with iodine and the cholesteryl ester spot cut out and transferred to scintillation vials to determine the amount of radioactivity. The conversion of oleic acid to cholesteryl ester in the control averaged 0.54 […] and was increased upon the addition of ac-LDL to about 10.69±0.69 […]. […] It should be noted that many of the intermediates had inhibitory activity in the in vitro ACAT assay and in the macrophage assay.

CCCCCCCN(CCCCCS(=O)(=O)c1nc(-c2ccccc2)c(-c2ccccc2)[nH]1)C(=O)Nc1ccc(F)cc1F [Example 281, N'-(2,4-difluorophenyl)-N-[5-[(4,5-diphenyl-1H-imidazol-2-yl)sulfonyl]pentyl]-N-heptylurea] and CCCCCCCN(CCCCCNc1nc(-c2ccccc2)c(-c2ccccc2)[nH]1)C(=O)Nc1ccc(F)cc1F [Example 338, N'-(2,4-difluorophenyl)-N-[5-(4,5-diphenyl-1H-imidazol-2-ylamino)pentyl]-N-heptylurea] are within 1.5-fold of each other in IC50: 3500 nM for the first, 3400 nM for the second.

Going from CCCCCCCN(CCCCCSc1nc(-c2ccccc2)c(-c2ccccc2)[nH]1)C(=S)Nc1c(F)cc(F)cc1F [Example 298, N-[5-(4,5-diphenyl-1H-imidazol-2-ylthio)pentyl]-N-heptyl-N'-(2,4,6-trifluorophenyl)thiourea] to CCCCCCCN(CCCCCSc1nc(-c2ccccc2)c(-c2ccccc2)[nH]1)C(=O)c1ccc(F)cc1F [Example 345], the IC50 falls from 2500 nM to 300 nM (8.3-fold).

Going from CCCCCCCN(CCCCCCc1nc(-c2ccccc2)c(-c2ccccc2)[nH]1)C(=O)Nc1ccc(F)cc1F [Example 339, N'-(2,4-difluorophenyl)-N-[6-(4,5-diphenyl-1H-imidazol-2-yl)hexyl]-N-heptylurea] to CCCCCCCN(CCCCCSc1nc(-c2ccccc2)c(-c2ccccc2)[nH]1)C(=O)Cc1ccc(F)cc1F [Example 340, 2,4-difluoro-N-[(5-(4,5-diphenyl-1H-imidazol-2-ylthio)pentyl)]-N-heptylbenzeneacetamide], the IC50 falls from 4400 nM to 200 nM (22-fold).

Going from CCCCCCCN(CCCCCSc1nc(-c2ccccc2)c(-c2ccccc2)[nH]1)C(=O)Cc1ccc(-c2ccccc2)cc1 [Example 343, N-[5-(4,5-diphenyl-1H-imidazol-2-ylthio)pentyl]-N-heptyl[1,1'-biphenyl]-4-acetamide] to CCCCCCCN(CCCCCSc1nc(-c2ccccc2)c(-c2ccccc2)[nH]1)C(=O)c1ccccc1 [Example 346], the IC50 falls from 1100 nM to 500 nM (2.2-fold).

CCCCCCCN(CCCCCSc1nc(-c2ccccc2)c(-c2ccccc2)[nH]1)C(=O)CC1CCCCC1 [Example 344] and CCCCCCCN(CCCCCSc1nc(-c2ccccc2)c(-c2ccccc2)[nH]1)C(=O)OC1CCCCC1 [Example 401, cyclohexyl [5-(4,5-diphenyl-1H-imidazol-2-ylthio)pentyl]heptylcarbamate] are the same in IC50: 400 nM for the first, 400 nM for the second.

Going from CCCCCCCN(CCCCCSc1nc(-c2ccccc2)c(-c2ccccc2)[nH]1)C(=O)Oc1ccccc1 [Example 402, Phenyl [5-(4,5-diphenyl-1H-imidazol-2-ylthio)pentyl]heptylcarbamate] to CCCCCCCN(CCCCCSc1nc(-c2ccccc2)c(-c2ccccc2)[nH]1)C(=N)Nc1ccccc1 [Example 499, N-[5-(4,5-diphenyl-1H-imidazol-2-ylthio)-pentyl]-N-heptyl-N'-phenylguanidine], the IC50 rises from 400 nM to 3400 nM (8.5-fold). The first is the more potent here.
